In patent publication US11905286B2, “Diazabicyclooctanones as inhibitors of serine beta-lactamases” (priority 2018, dated 2024):
Converted amounts (≈) assume the structure as drawn.

Tests used:
[1] = tested on: NTBC091.1 (E. coli strain expressing KPC-2, TEM-1); assay: Meropenem potentiation, broth micro-dilution MIC, strain NTBC091.1; type: cell-based; conditions: for MIC mero + 4 μg/mL inhibitor (banded): NTBC091.1, MIC of meropenem with 4 μg/mL of the labelled inhibitor, band; for MIC of meropenem + compound compared with meropenem + avibactam: NTBC091.1
Experimental: (§4) The experiments were carried out using the ‘broth micro-dilution method’ according to the protocols M07-A8 established by the Clinical Laboratory Standards Institute (CLSI). […] After incubation for 18-20 hours in a heating chamber at 37° C., the growth inhibition was evaluated by the absence of any bacterial development.
(§5) Compounds of the invention were tested at concentrations of 4 μg/mL.

[2] = target: OXA-48 (Klebsiella pneumoniae, UniProt Q6XEC0); assay: In vitro enzyme inhibition assay (nitrocefin hydrolysis), OXA-48; type: biochemical
Experimental: (§1) Compound dilution was performed in DMSO.

[3] = target: AmpC (Enterobacter cloacae, UniProt P05364); assay: biochemical
[4] = target: KPC-2 (Klebsiella pneumoniae, UniProt Q9F663); assay: In vitro enzyme inhibition assay (nitrocefin hydrolysis), KPC-2; type: biochemical
Experimental: as §1

[5] = target: CTX-M15 (Escherichia coli, UniProt Q9EXV5); assay: In vitro enzyme inhibition assay (nitrocefin hydrolysis), CTX-M15; type: biochemical
Experimental: as §1

[6] = tested on: larger panel of clinical strains of OXA positive enterobacteriaceae; assay: Cumulative MIC, larger panel of clinical strains of OXA positive enterobacteriaceae (FIG. 1B); conditions: meropenem + 4 μg/mL inhibitor
[7] = tested on: OXA-expressing clinical strain of Acinetobacter baumannii (AC00445); assay: Mouse thigh infection efficacy model, AC00445; type: in vivo; conditions: mice, IV at 1, 3, 5 and 7 hours post infection with constant dose of meropenem, 9 hours post infection
Experimental: (§2) Compounds of the invention were further examined in animal efficacy models.
(§3) Vehicle, meropenem alone or meropenem and a compound of the invention (Example 10) were administered by IV at 1, 3, 5 and 7 hours post infection. 9 hours post infection animals were sacrificed and the number of colony forming units (CFUs) was measured in order to quantify bacterial burden (colony forming units per gram thigh tissue, CFU/g).

[8] = tested on: KPC-expressing clinical strain of Klebsiella pneumoniae (NR-48977); assay: Mouse thigh infection efficacy model, NR-48977; type: in vivo; conditions: mice, IV at 1, 3, 5 and 7 hours post infection with constant dose of meropenem, 9 hours post infection
Experimental: as §2, §3

[9] = tested on: NTBC093 (E. cloacae strain expressing KPC-2, TEM-1); assay: Meropenem potentiation, broth micro-dilution MIC, strain NTBC093; conditions: NTBC093
Experimental: as §4, §5

[10] = tested on: OXA-expressing clinical strain of Klebsiella pneumoniae (AC00783); assay: Mouse thigh infection efficacy model, AC00783; type: in vivo; conditions: mice, IV at 1, 3, 5 and 7 hours post infection with constant dose of meropenem, 9 hours post infection
Experimental: as §2, §3

[11] = tested on: OXA-expressing clinical strain of Acinetobacter baumannii (AC00445); assay: MIC against strain used in thigh model, AC00445; type: cell-based
Source text: as §2

[12] = tested on: NTBC189 (K. pneumoniae strain expressing TEM-OSBL(b), CTX-M-14, OXA-48(c)); assay: Meropenem potentiation, broth micro-dilution MIC, strain NTBC189; conditions: NTBC189
Experimental: as §4, §5

[13] = tested on: NTBC096.1 (K. pneumoniae strain expressing OXA-181 and SHV-11); assay: Meropenem potentiation, broth micro-dilution MIC, strain NTBC096.1; type: cell-based; conditions: NTBC096.1
Experimental: as §4, §5

[14] = target: TEM-1 (Escherichia coli, UniProt P62593); assay: In vitro enzyme inhibition assay (nitrocefin hydrolysis), TEM-1; type: biochemical; conditions: nitrocefin 100 μM, band; read-out: TEM-1 mean IC50 (banded)
Experimental: as §1

[15] = tested on: clinical strains of KPC positive enterobacteriaceae; conditions: FIG. 2, meropenem + 4 μg/mL inhibitor
[16] = tested on: KPC-expressing clinical strain of Klebsiella pneumoniae (NR-48977); assay: MIC against strain used in thigh model, NR-48977; type: cell-based
Source text: as §2

[17] = tested on: panel of 48 A. baumannii strains (OXA positive clinical isolates); assay: Cumulative MIC, panel of 48 A. baumannii strains (FIG. 3)
[18] = tested on: OXA-expressing clinical strain of Klebsiella pneumoniae (AC00783); assay: MIC against strain used in thigh model, AC00783; type: cell-based
Source text: as §2

[19] = tested on: clinical strains of OXA positive enterobacteriaceae; assay: Cumulative MIC, panel of clinical strains of OXA positive enterobacteriaceae (FIG. 1A); conditions: antibiotic alone or clinical combination

OXA-48, sequence (Q6XEC0 23-265 limits assumed): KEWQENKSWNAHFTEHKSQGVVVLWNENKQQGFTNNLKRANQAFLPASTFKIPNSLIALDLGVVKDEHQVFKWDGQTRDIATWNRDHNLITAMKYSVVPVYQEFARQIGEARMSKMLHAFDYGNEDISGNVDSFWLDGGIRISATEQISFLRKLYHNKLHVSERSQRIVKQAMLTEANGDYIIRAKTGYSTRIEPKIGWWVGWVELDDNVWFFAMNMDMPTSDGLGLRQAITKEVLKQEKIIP
TEM-1, sequence (P62593 24-286 limits assumed): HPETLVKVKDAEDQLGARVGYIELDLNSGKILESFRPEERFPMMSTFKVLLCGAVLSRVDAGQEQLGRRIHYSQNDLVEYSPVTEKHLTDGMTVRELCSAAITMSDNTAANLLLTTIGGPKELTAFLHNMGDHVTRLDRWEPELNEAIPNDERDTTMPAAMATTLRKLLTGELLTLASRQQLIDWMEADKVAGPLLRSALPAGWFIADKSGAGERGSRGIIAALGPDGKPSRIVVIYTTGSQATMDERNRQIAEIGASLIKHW
AmpC, sequence (P05364 21-381): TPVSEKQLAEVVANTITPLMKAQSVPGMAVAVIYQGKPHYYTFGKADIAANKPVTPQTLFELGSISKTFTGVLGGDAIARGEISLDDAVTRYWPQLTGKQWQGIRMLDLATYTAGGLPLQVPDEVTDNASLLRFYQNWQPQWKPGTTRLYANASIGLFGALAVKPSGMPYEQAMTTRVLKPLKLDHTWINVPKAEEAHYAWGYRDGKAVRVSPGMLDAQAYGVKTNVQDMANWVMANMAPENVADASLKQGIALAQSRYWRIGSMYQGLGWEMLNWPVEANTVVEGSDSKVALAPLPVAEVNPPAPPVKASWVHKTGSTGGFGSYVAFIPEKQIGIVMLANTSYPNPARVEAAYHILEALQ
KPC-2, sequence (Q9F663 25-293 limits assumed): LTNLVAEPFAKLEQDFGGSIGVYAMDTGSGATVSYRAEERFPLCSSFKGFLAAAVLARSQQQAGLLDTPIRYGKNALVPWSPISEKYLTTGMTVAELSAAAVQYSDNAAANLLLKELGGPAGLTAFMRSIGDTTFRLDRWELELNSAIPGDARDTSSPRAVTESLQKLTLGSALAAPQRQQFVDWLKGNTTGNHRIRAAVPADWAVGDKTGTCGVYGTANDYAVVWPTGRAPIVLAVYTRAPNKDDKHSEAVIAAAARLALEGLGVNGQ
CTX-M15, sequence (Q9EXV5 entry or part of it): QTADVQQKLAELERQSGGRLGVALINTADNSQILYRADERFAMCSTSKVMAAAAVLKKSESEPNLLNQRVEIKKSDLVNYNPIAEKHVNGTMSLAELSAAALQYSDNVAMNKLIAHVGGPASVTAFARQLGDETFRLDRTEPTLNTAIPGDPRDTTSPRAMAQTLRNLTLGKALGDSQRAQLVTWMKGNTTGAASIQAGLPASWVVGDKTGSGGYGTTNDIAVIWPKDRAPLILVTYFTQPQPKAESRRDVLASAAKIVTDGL

O=C1N2C[C@@H](CC[C@H]2SC(F)(F)F)N1OS(=O)(=O)[O-].[Na+] [Example 7, Sodium (2R, 5R)-7-oxo-2-[(trifluoromethyl)sulfanyl]-1,6-diazabicyclo[3.2.1]octan-6-yl sulphate]
MIC mero + 4 μg/mL inhibitor (banded) [1]: (A) (1 μg/mL) | IC50 [2]: 200 to 300 nM | IC50 [3]: 40 to 60 nM | IC50 [4]: > 10 nM

O=C1N2C[C@@H](CC[C@H]2COC(F)(F)F)N1OS(=O)(=O)[O-].[Na+] [Example 8, Sodium (2S, 5R)-7-oxo-2-[(trifluoromethoxy)methyl]-1,6-diazabicyclo[3.2.1]octan-6-yl sulphate]
MIC mero + 4 μg/mL inhibitor (banded) [1]: (A) (1 μg/mL) | IC50 [2]: 200 to 300 nM | IC50 [3]: 40 to 60 nM | IC50 [5]: 100 to 200 nM | IC50 [4]: < 10 nM

O=C1N2C[C@@H](CC[C@H]2C(F)(F)c2nccs2)N1OS(=O)(=O)[O-].[Na+] [Example 9, Sodium (2S, 5R)-2-[difluoro(1,3-thiazol-2-yl)methyl]-7-oxo-1,6-diazabicyclo[3.2.1]octan-6-yl sulphate]
MIC mero + 4 μg/mL inhibitor (banded) [1]: (A) (1 μg/mL) | IC50 [2]: 200 to 300 nM | IC50 [3]: < 10 nM | IC50 [5]: 20 to 100 nM | IC50 [4]: < 10 nM

O=C1N2C[C@@H](CC[C@H]2F)N1OS(=O)(=O)[O-].[Na+] [Example 10, Sodium (2R,5R)-2-fluoro-7-oxo-1,6-diazabicyclo[3.2.1]octan-6-yl sulfate]
MIC50 of meropenem with addition of 4 μg/mL of inhibitor [6]: 0.12 µg/mL | MIC90 of meropenem with addition of 4 μg/mL of inhibitor [6]: 0.5 µg/mL | MIC of meropenem + compound compared with meropenem + avibactam [1]: lower | MIC mero + 4 μg/mL inhibitor (banded) [1]: (A) (1 μg/mL) | bacterial burden (colony forming units per gram thigh tissue) [7]: dose response | bacterial burden (colony forming units per gram thigh tissue) [8]: dose response | MIC of meropenem + compound compared with meropenem + avibactam [9]: similar | bacterial burden (colony forming units per gram thigh tissue) [10]: dose response | IC50 [2]: 200 to 300 nM | MIC (Meropenem + inhibitor at 4 μg/mL) ([11]; AC00445): 4 µg/mL | MIC of meropenem + compound compared with meropenem + avibactam [12]: lower | MIC of meropenem + compound compared with meropenem + avibactam [13]: lower | IC50 [14]: < 3 nM | MIC50 of meropenem with addition of 4 μg/mL of inhibitor [15]: 0.12 µg/mL | IC50 [3]: 10 to 40 nM | MIC (Meropenem + inhibitor at 4 μg/mL) ([16]; NR-48977): 1 µg/mL | IC50 [4]: > 10 nM | % of the strains susceptible ([17]; FIG. 3, in the presence of 2 μg/mL of each inhibitor, inhibitor in combination with meropenem): around 50% | % of the strains susceptible ([17]; FIG. 3, in the presence of 16 μg/mL of each inhibitor, inhibitor in combination with meropenem): ~100% | MIC90 of meropenem with addition of 4 μg/mL of inhibitor ([17]; FIG. 3, meropenem + 4 μg/mL inhibitor): 8 µg/mL | MIC (Meropenem + inhibitor at 4 μg/mL) [18]: 0.25 µg/mL

O=C1N2C[C@@H](CC[C@@H]2F)N1OS(=O)(=O)[O-].[Na+] [Example 11, Sodium (2S, 5R)-2-fluoro-7-oxo-1,6-diazabicyclo [3.2.1]octan-6-yl sulfate]
MIC mero + 4 μg/mL inhibitor (banded) [1]: (A) (1 μg/mL) | IC50 [2]: > 300 nM | IC50 [14]: > 10 nM | IC50 [3]: > 60 nM | IC50 [4]: > 10 nM

O=C1N2C[C@@H](CC[C@H]2Cl)N1OS(=O)(=O)[O-].[Na+] [Example 12, Sodium (2R,5R)-2-chloro-7-oxo-1,6-diazabicyclo[3.2.1]octan-6-yl sulfate]
MIC of meropenem + compound compared with meropenem + avibactam [1]: lower | MIC mero + 4 μg/mL inhibitor (banded) [1]: (A) (1 μg/mL) | IC50 [2]: > 300 nM | IC50 [14]: < 3 nM | IC50 [3]: < 10 nM | IC50 [4]: > 10 nM

C[C@@H](O)[C@H]1C(=O)N2C(C(=O)O)=C(S[C@@H]3CN[C@H](C(=O)N(C)C)C3)[C@H](C)[C@H]12 [meropenem, reference compound]
fraction of strains susceptible at an MIC of 1 μg/mL [19]: 0% | MIC ([11]; Acinetobacter baumannii, read-out: MIC (meropenem alone)): 64 µg/mL (≈ 167 µM) | MIC ([16]; Klebsiella pneumoniae, read-out: MIC (meropenem alone)): 64 µg/mL (≈ 167 µM) | % of the strains susceptible ([17]; FIG. 3, in the presence of 2 μg/mL of each inhibitor, antibiotic alone or clinical combination): 0%
